Test results reported in PMC4569258.
“Also recorded” adds a separate entry of the source. Like-named read-outs stand apart in the source and are kept apart here. Blank lines part the entries; values can stand above or below the compound they belong to.

How the values were obtained:
[1] = target: T1, aryl hydrocarbon receptor (AhR) (Homo sapiens, UniProt P35869); experiment: AhR gene reporter assay in AZ-AHR cells; details: for IC50: AhR antagonist IC50, antagonist mode, in presence of TCDD 5 nM
T1 sequence (P35869 11-848): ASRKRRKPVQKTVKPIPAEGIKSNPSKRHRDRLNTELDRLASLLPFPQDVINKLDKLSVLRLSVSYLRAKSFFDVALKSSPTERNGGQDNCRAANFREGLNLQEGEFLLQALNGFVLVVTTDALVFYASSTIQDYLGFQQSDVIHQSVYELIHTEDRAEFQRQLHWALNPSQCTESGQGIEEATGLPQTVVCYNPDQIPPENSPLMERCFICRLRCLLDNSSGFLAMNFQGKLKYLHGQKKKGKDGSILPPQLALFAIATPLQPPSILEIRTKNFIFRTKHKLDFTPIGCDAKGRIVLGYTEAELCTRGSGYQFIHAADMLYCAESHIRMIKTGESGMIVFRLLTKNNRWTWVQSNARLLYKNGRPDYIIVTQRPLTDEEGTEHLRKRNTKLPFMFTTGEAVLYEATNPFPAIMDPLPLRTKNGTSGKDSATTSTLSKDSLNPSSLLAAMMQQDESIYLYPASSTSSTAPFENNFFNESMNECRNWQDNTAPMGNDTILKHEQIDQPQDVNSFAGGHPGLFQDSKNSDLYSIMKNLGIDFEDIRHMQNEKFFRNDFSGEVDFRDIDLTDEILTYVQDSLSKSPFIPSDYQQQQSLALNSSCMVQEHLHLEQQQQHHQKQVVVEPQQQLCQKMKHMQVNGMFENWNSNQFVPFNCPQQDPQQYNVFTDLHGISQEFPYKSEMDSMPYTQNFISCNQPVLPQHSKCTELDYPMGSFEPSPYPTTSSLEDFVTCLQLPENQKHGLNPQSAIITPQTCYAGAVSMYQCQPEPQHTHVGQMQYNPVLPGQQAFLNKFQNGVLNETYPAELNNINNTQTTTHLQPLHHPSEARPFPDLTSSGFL
Method: (§5) A stably transfected gene reporter cell line AZ-AHR, derived from human hepatoma HepG2 cells transfected with a construct containing several AhR binding sites upstream of a luciferase reporter gene, was used for assessment of AhR transcriptional activity [20].
(§6) Transcriptional activity of AhR was assessed in human gene reporter cell line AZ-AHR incubated for 24 h with tested compounds.
(§7) AZ-AHR cells were seeded in 96-well plates and stabilized for 16 h and then incubated for 24 h with enantiopure forms of atorvastatin, rosuvastatin and fluvastatin in concentration ranging from 10^−10 M to 10^−4 M in the absence (agonist mode–upper panels) or presence (antagonist mode–lower panels) of dioxin (TCDD; 5 nM). The vehicle was DMSO (0.1% v/v). After the treatments, cells were lysed and luciferase activity was measured. Treatments were performed in triplicates. Data are expressed as a fold induction of luciferase activity over control cells (agonist mode) or as a percentage of maximal activation attained by TCDD (antagonist mode). The values of EC50 and IC50 from n independent cell passages were calculated where appropriate and the average values are indicated in plots. Representative gene reporter assays are shown.

CYP3A4 protein = details: HH59, HH61, HH63; 48 h
Method: (§8) Total protein extracts were prepared from cells cultured on 6-well plates. Cells were washed twice with ice-cold PBS and scraped into 1 ml of PBS. The suspension was centrifuged (4500 rpm/5 min/4°C) and the pellet was resuspended in 150 μl of ice-cold lysis buffer (150 mM NaCl; 10 mM Tris pH 7.2; 0.1% (w/v) SDS; anti-protease cocktail, 1% (v/v) Triton X-100; anti-phosphatase cocktail, 1% (v/v) sodium deoxycholate; 5 mM EDTA). The mixture was vortexed and incubated for 10 min on ice and then centrifuged (15000 rpm/13 min/4°C). Supernatant was collected and the protein content was determined by the Bradford reagent.
All reagents used for running the simple western by Sally Sue ^TM were obtained from ProteinSimple (San Jose, California) and prepared according to manufacturer’s recommendations (http://www.proteinsimple.com/sally_sue.html). […] Antibody diluent, goat anti-rabbit secondary antibody, and goat anti-mouse secondary antibody were purchased from ProteinSimple. The capillaries, containing a proprietary UV-activated chemical linked reagent and 384-well plates were obtained from ProteinSimple. […] The resulting chemiluminescent signal was detected and quantified by the Compass Software version 2.6.5.0 (ProteinSimple). For quantitative data analysis, the CYPs signals were normalized to β-actin as a loading control.

[2] = target: T2, glucocorticoid receptor (GR) (Homo sapiens, UniProt P04150); experiment: GR gene reporter assay in AZ-GR cells; assay type: cell-based; details: for IC50 / effect on dexamethasone-inducible transcriptional activity of GR, in words: antagonist mode; for IC50: in presence of DEX 100 nM; for effect on dexamethasone-inducible transcriptional activity of GR, in words: DEX 100 nM
T2 sequence (P04150 1-777): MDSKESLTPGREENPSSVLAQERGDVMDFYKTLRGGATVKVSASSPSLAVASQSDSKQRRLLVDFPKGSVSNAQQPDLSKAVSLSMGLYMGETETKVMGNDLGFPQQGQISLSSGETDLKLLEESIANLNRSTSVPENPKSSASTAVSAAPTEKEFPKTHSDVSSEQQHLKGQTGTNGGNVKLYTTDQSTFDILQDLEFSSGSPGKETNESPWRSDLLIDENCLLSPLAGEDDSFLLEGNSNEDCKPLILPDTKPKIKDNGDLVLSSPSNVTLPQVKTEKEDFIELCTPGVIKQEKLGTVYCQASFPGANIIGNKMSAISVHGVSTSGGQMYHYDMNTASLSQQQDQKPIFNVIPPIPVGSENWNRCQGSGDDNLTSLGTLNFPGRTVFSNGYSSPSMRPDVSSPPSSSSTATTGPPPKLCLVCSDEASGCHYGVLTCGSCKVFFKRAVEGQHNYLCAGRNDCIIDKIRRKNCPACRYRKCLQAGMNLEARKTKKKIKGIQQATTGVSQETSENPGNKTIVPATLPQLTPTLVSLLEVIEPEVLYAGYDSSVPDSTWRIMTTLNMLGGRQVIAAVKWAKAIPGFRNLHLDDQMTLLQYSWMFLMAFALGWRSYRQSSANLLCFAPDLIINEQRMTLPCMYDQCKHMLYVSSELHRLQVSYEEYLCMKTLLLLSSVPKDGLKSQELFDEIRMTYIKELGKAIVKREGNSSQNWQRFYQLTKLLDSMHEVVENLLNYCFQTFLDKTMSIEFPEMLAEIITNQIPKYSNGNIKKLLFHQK
Method: Transcriptional activity of GR was assessed in human gene reporter cell line AZ-GR incubated for 24 h with tested compounds. […] The vehicle was DMSO (0.1% v/v). […] Treatments were performed in triplicates.

[3] = target: T1, aryl hydrocarbon receptor (AhR); experiment: cell-based
Method: as §5, §6, §7

[4] = target: T3, pregnane X receptor (PXR) (Homo sapiens, UniProt O75469); details: for effect on rifampicin-inducible PXR transcriptional activity, in words: antagonist mode, RIF 10 μM, 24 h; for rifampicin-inducible luciferase activity, minimum of U-shaped curve: with RIF 10 μM, concentrations range 10^−8 M-10^−6 M
T3 sequence (O75469 1-434): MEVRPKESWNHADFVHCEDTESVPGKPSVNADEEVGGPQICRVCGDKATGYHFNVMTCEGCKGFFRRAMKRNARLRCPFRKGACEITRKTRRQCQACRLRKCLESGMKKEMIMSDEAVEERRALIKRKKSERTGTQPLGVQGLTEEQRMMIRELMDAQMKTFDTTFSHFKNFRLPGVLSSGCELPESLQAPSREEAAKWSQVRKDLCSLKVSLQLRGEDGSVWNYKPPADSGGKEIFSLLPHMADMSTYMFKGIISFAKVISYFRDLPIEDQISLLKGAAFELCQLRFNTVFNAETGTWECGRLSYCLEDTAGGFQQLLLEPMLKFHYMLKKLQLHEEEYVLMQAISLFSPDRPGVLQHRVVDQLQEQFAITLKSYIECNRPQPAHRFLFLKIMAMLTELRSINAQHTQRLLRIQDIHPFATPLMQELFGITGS

[5] = MTT cytotoxicity test in LS180 cells; assay type: cell-based; details: human, LS180 colon adenocarcinoma cells
Method: (§1) Prior to gene reporter assays, we examined the cytotoxicity of tested compounds in AZ-AHR, AZ-GR and LS180 cell lines. For this purpose, the cells were incubated for 24 h with individual enantiomers of atorvastatin, fluvastatin and rosuvastatin at concentrations ranging from 100 pM to 100 μM. The vehicle was DMSO (0.1% v/v). After the treatment, a conventional MTT test was performed and the values of IC50 were calculated.
(§2) Fig 2 Cytotoxicity of statin enantiomers in human cancer cell lines. […] After the treatment, a conventional MTT test was performed and absorbance was measured at 540 nm. Treatments were performed in triplicates.

[6] = MTT cytotoxicity test in AZ-AHR cells; assay type: cell-based; details: human
Method: as §1, §2

[7] = MTT cytotoxicity test in AZ-GR cells; assay type: cell-based; details: human, AZ-GR cells (HeLa-derived GR luciferase reporter cell line)
Method: as §1, §2

CYP2B6 mRNA = details: 10 μM
CYP2B6 protein = details: 10 μM
Method: as §8
(§9) All reagents used for running the simple western by Sally Sue ^TM were obtained from ProteinSimple (San Jose, California) and prepared according to manufacturer’s recommendations (http://www.proteinsimple.com/sally_sue.html). […] Antibody diluent, goat anti-rabbit secondary antibody, and goat anti-mouse secondary antibody were purchased from ProteinSimple. The capillaries, containing a proprietary UV-activated chemical linked reagent and 384-well plates were obtained from ProteinSimple. All samples and reagents were prepared according to the recommended ProteinSimple manual. Target proteins were identified using primary antibodies and immunoprobed using a horseradish peroxidase-conjugated secondary antibody and chemiluminescent substrate. The resulting chemiluminescent signal was detected and quantified by the Compass Software version 2.6.5.0 (ProteinSimple). For quantitative data analysis, the CYPs signals were normalized to β-actin as a loading control.

CYP2A6 protein = details: 10 μM
Method: as §8, §9

CYP2A6 mRNA = details: for induction of CYP2A6 mRNA: 10 μM
CYP1A1 mRNA = CYP1A1 mRNA (qRT-PCR) in primary human hepatocytes; assay type: cell-based; details: 5 nM
Method: (§3) Cells were cultured in serum-free medium.
(§4) Measurements were performed in triplicates.

CYP1A2 protein = CYP1A2 protein (Simple Western) in primary human hepatocytes; assay type: cell-based; details: 5 nM
Method: as §3

CYP1A2 mRNA = CYP1A2 mRNA (qRT-PCR) in primary human hepatocytes; assay type: cell-based; details: 5 nM
Method: as §3, §4

CYP1A1 protein = CYP1A1 protein (Simple Western) in primary human hepatocytes; assay type: cell-based; details: 5 nM
Method: as §3

Structure (SMILES): CC(C)c1nc(N(C)S(C)(=O)=O)nc(-c2ccc(F)cc2)c1C=CC(O)CC(O)CC(=O)O (stereo not drawn) [3S5R-rosuvastatin, 3S5R- rosuvastatin]
- IC50 ([1]; 24 h): > 100 µM
- induction of CYP3A4 protein, in words (CYP3A4 protein): significant induction of CYP3A4 protein
- IC50 ([2]; 24 h): > 100 µM
- EC50 [3]: > 100 µM
- effect on rifampicin-inducible PXR transcriptional activity, in words [4]: not influenced

- effect on dexamethasone-inducible transcriptional activity of GR, in words ([2]; 24 h): decreased
Structure (SMILES): CC(C)c1c(C(=O)Nc2ccccc2)c(-c2ccccc2)c(-c2ccc(F)cc2)n1CC[C@@H](O)C[C@@H](O)CC(=O)O [3R5R-atorvastatin]

Structure (SMILES): CC(C)c1nc(N(C)S(C)(=O)=O)nc(-c2ccc(F)cc2)c1C=CC(O)CC(O)CC(=O)O (stereo not drawn) [3R5R-rosuvastatin, 3R5R- rosuvastatin]
- IC50 at 24 h [5]: > 100 µM
- IC50 ([1]; 24 h): > 100 µM
- EC50 ([2]; agonist mode, 24 h): > 100 µM
- IC50 ([2]; 24 h): > 100 µM
- IC50 at 24 h [6]: > 100 µM
- IC50 at 24 h [7]: > 100 µM
- EC50 [3]: > 100 µM
- effect on rifampicin-inducible PXR transcriptional activity, in words [4]: U-shaped curve
- rifampicin-inducible luciferase activity, minimum of U-shaped curve [4]: 60 % of rifampicin value

Structure (SMILES): C[C@@H]1C[C@H]2[C@@H]3CCC4=CC(=O)C=C[C@]4(C)[C@@]3(F)[C@@H](O)C[C@]2(C)[C@@]1(O)C(=O)CO [dexamethasone]
- average induction of GR-dependent luciferase activity ([2]; 100 nM, eight consecutive passages, vs DMSO-treated cells): 32 fold

- induction of CYP2B6 mRNA (CYP2B6 mRNA; culture HH59, 24 h): 5.8 fold
- induction of CYP2B6 mRNA (CYP2B6 mRNA; culture HH61, 24 h): 16 fold
- induction of CYP2B6 mRNA (CYP2B6 mRNA; culture HH63, 24 h): 6.9 fold
- induction of CYP2B6 protein (CYP2B6 protein; culture HH59, 48 h): 8.4 fold
- induction of CYP2B6 protein (CYP2B6 protein; culture HH61, 48 h): 5.9 fold
- induction of CYP2B6 protein (CYP2B6 protein; culture HH63, 48 h): 7.7 fold
- induction of CYP2A6 protein (CYP2A6 protein; culture HH59, 48 h): 4.8 fold
- induction of CYP2A6 protein (CYP2A6 protein; culture HH61, 48 h): 7.3 fold
- induction of CYP2A6 protein (CYP2A6 protein; culture HH63, 48 h): 2.3 fold
- induction of CYP2A6 mRNA (CYP2A6 mRNA; culture HH59, 24 h): 2.4 fold
- induction of CYP2A6 mRNA (CYP2A6 mRNA; culture HH61, 24 h): 5.2 fold
- induction of CYP2A6 mRNA (CYP2A6 mRNA; culture HH63, 24 h): 7.1 fold
Structure (SMILES): CO[C@H]1/C=C/O[C@@]2(C)Oc3c(C)c(O)c4c(O)c(c(/C=N/N5CCN(C)CC5)c(O)c4c3C2=O)NC(=O)/C(C)=C\C=C\[C@H](C)[C@H](O)[C@@H](C)[C@@H](O)[C@@H](C)[C@H](OC(C)=O)[C@@H]1C [rifampicin]

Structure (SMILES): CC(C)n1c(C=CC(O)CC(O)CC(=O)O)c(-c2ccc(F)cc2)c2ccccc21 (stereo not drawn) [3S5S-fluvastatin]
- IC50 at 24 h [5]: > 100 µM
- IC50 ([1]; 24 h): > 100 µM
- effect on AhR-dependent luciferase activity (agonist mode), in words ([1]; agonist mode, 24 h): slightly increased luciferase activity
- IC50 at 24 h [6]: > 100 µM
- IC50 at 24 h [7]: > 100 µM
- EC50 [3]: 14.7 ± 0.9 µM
- efficacy: average induction of PXR luciferase activity ([4]; 100 μM concentration, agonist mode): around 3 fold

Structure (SMILES): CC(C)c1nc(N(C)S(C)(=O)=O)nc(-c2ccc(F)cc2)c1C=CC(O)CC(O)CC(=O)O (stereo not drawn) [3R5S-rosuvastatin]
- IC50 ([1]; 24 h): 53.5 ± 60.4 µM
- effect on TCDD-inducible transcriptional activity of AhR, in words ([1]; antagonist mode, TCDD 5 nM, 24 h): dose-dependently inhibited
- induction of CYP3A4 protein, in words (CYP3A4 protein): significant induction of CYP3A4 protein
- effect on dexamethasone-inducible transcriptional activity of GR, in words ([2]; 24 h): decreased
- IC50 ([2]; 24 h): 89.7 ± 12.6 µM
- EC50 [3]: > 100 µM
- induction of CYP2A6 mRNA, in words (CYP2A6 mRNA; HH59, HH61, HH63, 24 h, 1, 10, 30 μM): weak increase of CYP2A6 mRNA in culture HH61; also recorded: induced CYP2A6 mRNA
- effect on rifampicin-inducible PXR transcriptional activity, in words [4]: inverse U-shaped curve

Structure (SMILES): Clc1cc2c(cc1Cl)Oc1cc(Cl)c(Cl)cc1O2 [TCDD, 2,3,7,8-tetrachlorodibenzo-p-dioxin]
- average induction of AhR-dependent luciferase activity ([1]; 5 nM, eight consecutive passages, vs DMSO-treated cells): 1107 fold
- induction of CYP1A1 mRNA (CYP1A1 mRNA; culture HH59, 24 h): 98 fold
- induction of CYP1A1 mRNA (CYP1A1 mRNA; culture HH61, 24 h): 339 fold
- induction of CYP1A1 mRNA (CYP1A1 mRNA; culture HH63, 24 h): 278 fold
- induction of CYP1A2 protein (CYP1A2 protein; culture HH59, 48 h): 19 fold
- induction of CYP1A2 protein (CYP1A2 protein; culture HH61, 48 h): 83 fold
- induction of CYP1A2 protein (CYP1A2 protein; culture HH63, 48 h): 50 fold
- induction of CYP1A2 mRNA (CYP1A2 mRNA; culture HH59, 24 h): 110 fold
- induction of CYP1A2 mRNA (CYP1A2 mRNA; culture HH61, 24 h): 143 fold
- induction of CYP1A2 mRNA (CYP1A2 mRNA; culture HH63, 24 h): 45 fold
- induction of CYP1A1 protein (CYP1A1 protein; culture HH59, 48 h): 35 fold
- induction of CYP1A1 protein (CYP1A1 protein; culture HH61, 48 h): 220 fold
- induction of CYP1A1 protein (CYP1A1 protein; culture HH63, 48 h): 35 fold

Structure (SMILES): CC(C)c1nc(N(C)S(C)(=O)=O)nc(-c2ccc(F)cc2)c1C=CC(O)CC(O)CC(=O)O (stereo not drawn) [3S5S-rosuvastatin]
- IC50 ([1]; 24 h): > 100 µM
- efficacy of AhR activation, % of induction attained by TCDD ([1]; agonist mode): about 0.1%
- effect on AhR-dependent luciferase activity (agonist mode), in words ([1]; agonist mode, 24 h): dose-dependently increased luciferase activity
- IC50 ([2]; 24 h): > 100 µM
- EC50 [3]: 17.5 ± 0.4 µM
- effect on rifampicin-inducible PXR transcriptional activity, in words [4]: U-shaped curve
- rifampicin-inducible luciferase activity, minimum of U-shaped curve [4]: 60 % of rifampicin value
